The source of these data is article PMC8498988, “Scaffold Hybridization Strategy Leads to the Discovery of Dopamine D3 Receptor-Selective or Multitarget Bitopic Ligands Potentially Useful for Central Nervous System Disorders” (ACS Chemical Neuroscience, 2021).

The target in test [1] is T1, D4R (Homo sapiens, UniProt P21917).
T1 sequence (P21917 1-419): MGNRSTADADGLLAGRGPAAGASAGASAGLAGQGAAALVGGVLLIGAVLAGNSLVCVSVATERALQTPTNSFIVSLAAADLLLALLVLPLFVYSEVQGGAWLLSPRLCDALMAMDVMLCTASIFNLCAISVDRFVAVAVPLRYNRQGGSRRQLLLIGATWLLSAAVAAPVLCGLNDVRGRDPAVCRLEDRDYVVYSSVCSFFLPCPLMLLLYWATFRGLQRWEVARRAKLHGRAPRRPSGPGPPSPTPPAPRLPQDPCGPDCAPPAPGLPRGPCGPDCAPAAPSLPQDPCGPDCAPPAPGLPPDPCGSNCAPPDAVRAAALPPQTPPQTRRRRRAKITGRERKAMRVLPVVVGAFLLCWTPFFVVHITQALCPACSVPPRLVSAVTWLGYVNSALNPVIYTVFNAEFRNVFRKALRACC
Put plainly: Radioligand competition binding at human D4R ([3H]N-methylspiperone, HEK293 membranes). Also on record: expressed in transfected cells; host or cells: HEK293. The settings on record: HEK 293 cells expressing hD4R, read-out: Ki ± SEM, D4R. Here is the method:
The novel hybrid derivatives 3–11 were tested at hD2R, hD3R, or hD4R stably expressed in HEK293 cells by competition binding assays, using [^3H]N-methylspiperone as the radioligand, to evaluate their D2-like affinity and subtype selectivity, following the previously reported procedures.[41],[45],[46]
Binding at dopamine D2-like receptors was determined using previously described methods.[41],[45],[46] Membranes were prepared from HEK293 cells stably expressing human D2, D3, or D4, grown in a 50:50 mix of Dulbecco’s minimal essential medium (DMEM) and Ham’s F12 culture media, supplemented with 20 mM HEPES, 2 mM L-glutamine, 0.1 mM nonessential amino acids, 1× antibiotic/antimycotic, 10% heat-inactivated fetal bovine serum, and 200 μg/mL hygromycin (Life Technologies, Grand Island, NY) and kept in an incubator at 37 °C and 5% CO2. Upon reaching 80–90% confluency, the cells were harvested using premixed Earle’s Balanced Salt Solution (EBSS) with 5 μM EDTA (Life Technologies) and centrifuged at 3000 rpm for 10 min at 21 °C. The supernatant was removed, and the pellet was resuspended in 10 mL hypotonic lysis buffer (5 mM MgCl2, 5 mM Tris, pH 7.4 at 4 °C) and centrifuged at 20,000 rpm for 30 min at 4 °C. The pellet was then resuspended in fresh EBSS buffer made from 8.7 g/L Earle’s Balanced Salts without phenol red (US Biological, Salem, MA), 2.2 g/L sodium bicarbonate, pH to 7.4. A Bradford protein assay (Bio-Rad, Hercules, CA) was used to determine the protein concentration, and membranes were diluted to 500 μg/mL and stored at −80 °C for later use. Radioligand competition binding experiments were conducted using thawed membranes. Test compounds were freshly dissolved in 30% DMSO and 70% H2O to a stock concentration of 100 μM. To assist the solubilization of free-base compounds, 10 μL of glacial acetic acid was added along with DMSO. Each test compound was then diluted into 13 half-log serial dilutions using 30% DMSO vehicle; the final test concentrations ranged from 10 μM to 10 pM. The previously frozen membranes were diluted in fresh EBSS to a 100 μg/mL (for D2 or D3) or 200 μg/mL (D4) stock for binding. Radioligand competition experiments were conducted in glass tubes containing 300 μL of fresh EBSS buffer, 50 μL of diluted test compound, 100 μL of membranes (10 μg of total protein for D2 or D3 and 20 μg of total protein for D4), and 50 μL of [^3H]N-methylspiperone (0.4 nM final concentration; PerkinElmer). Nonspecific binding was determined using 10 μM butaclamol (Sigma-Aldrich, St. Louis, MO), and total binding was determined with the 30% DMSO vehicle. All compound dilutions were tested in triplicate and the reaction was incubated for 1 h at room temperature. The reaction was terminated by filtration through Whatman GF/B filters, presoaked for 1 h in 0.5% polyethylenimine, using a Brandel R48 filtering manifold (Brandel Instruments, Gaithersburg, MD). The filters were washed three times with 3 mL of ice-cold EBSS buffer and transferred to scintillation vials. CytoScint liquid scintillation cocktail (3 mL, MP Biomedicals, Solon, OH) was added, and vials were counted using a PerkinElmer Tri-Carb 2910 TR liquid scintillation counter (Waltham, MA).
(In a radioligand displacement assay an active substance lowers the binding of a labelled ligand.)

Test [2] deals with T2, 5-HT2CR (Homo sapiens, UniProt P28335).
T2 sequence (P28335 33-458): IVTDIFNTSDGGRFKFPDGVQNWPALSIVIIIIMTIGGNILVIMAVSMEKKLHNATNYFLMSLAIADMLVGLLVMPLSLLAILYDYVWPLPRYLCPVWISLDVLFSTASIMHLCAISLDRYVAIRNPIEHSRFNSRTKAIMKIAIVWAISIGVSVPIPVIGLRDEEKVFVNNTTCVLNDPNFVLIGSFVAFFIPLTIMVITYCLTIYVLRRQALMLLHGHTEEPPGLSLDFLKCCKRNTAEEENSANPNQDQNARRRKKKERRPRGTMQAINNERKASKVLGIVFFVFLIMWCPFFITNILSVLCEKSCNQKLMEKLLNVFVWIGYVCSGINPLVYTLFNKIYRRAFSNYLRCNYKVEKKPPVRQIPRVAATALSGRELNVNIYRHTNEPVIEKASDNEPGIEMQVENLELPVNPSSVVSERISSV
Kind of test: Radioligand binding assay at human 5-HT2CR ([125I]DOI, HEK cells). Also on record: expressed in transfected cells; host or cells: HEK (HEK-h5HT2C). The settings on record: HEK cells expressing h5-HT2CR, read-out: Ki ± SEM, 5-HT2CR. Here is the method: Human embryonic kidney cells expressing human 5HT2AR (HEK-h5HT2A) or human 5HT2CR (HEK-h5HT2C) are used. The cells are grown until confluent on 15 cm plates. The medium is removed, and the cells are washed with phosphate-buffered saline (PBS), scraped into 2 mL PBS, and frozen at −20 °C until needed. Cell suspension is thawed, 10 mL assay buffer (50 mM Tris, pH 7.4 at 37 °C, with 0.1% ascorbic acid and 5 mM CaCl2) is added per plate of cells, and polytronned at setting 6 for 5 s. The homogenate is centrifuged at 15,500 rpm for 20 min. To minimize the residual 5HT concentration, the pellet is resuspended in buffer, polytronned, and centrifuged as mentioned above. The final pellet is resuspended in 2 mL buffer/plate of cells. The binding assay includes 50 μL drug, 5-HT or buffer, 50 μL cell homogenate, 50 μL [^125I]DOI (∼0.1 nM), and buffer in a final volume of 250 μL. Specific binding is defined as the difference between total binding and binding in the presence of 10 μM 5HT. The reaction is incubated for 1 h at 37 °C and terminated by filtration through Wallac A filter mats presoaked in 0.05% polyethylenimine using a Tomtec 96-well harvester. The radioactivity remaining on filters is determined using a Wallac betaplate reader.

Broadly, the Ki is a measure of affinity in units of concentration, obtained from inhibition or displacement.

Regarding `O=C(NCCCCN1CCN(c2cccc(Cl)c2Cl)CC1)C1COCC(c2ccccc2)(c2ccccc2)O1` (stereo not drawn) [compound 3, N-(4-(4-(2,3-Dichlorophenyl)piperazin-1-yl)butyl)-6,6-diphenyl-1,4-dioxane-2-carboxamide], the Ki in test [1] came out at 1350 ± 449 nM; in test [2] it was 642 ± 80 nM.

As for `O=C(NCCCCN1CCN(c2cccc(Cl)c2Cl)CC1)C1COC(c2ccccc2)(c2ccccc2)CO1` (stereo not drawn) [compound 6, N-(4-(4-(2,3-Dichlorophenyl)piperazin-1-yl)butyl)-5,5-diphenyl-1,4-dioxane-2-carboxamide], the Ki in test [1] was 54.6 ± 7.3 nM; in test [2], 90 ± 16 nM.

`O=C(NCCCCN1CCN(c2cccc(Cl)c2Cl)CC1)C1COc2ccccc2O1` (stereo not drawn) [compound 9, N-(4-(4-(2,3-Dichlorophenyl)piperazin-1-yl)butyl)-2,3-dihydrobenzo[b][1,4]dioxine-2-carboxamide]: the Ki amounted to 74.7 ± 24.5 nM in test [1] and 97 ± 25 nM in test [2].
